# Test results: patent US20140221676A1, “COMPOSITIONS AND METHODS FOR TREATING AND/OR PREVENTING CARDIOVASCULAR DISEASE” (Amarin Pharmaceuticals Ireland Limited, priority 2013, published 2014)
# “Also recorded” adds a separate entry of the source.
# Assays:
# Assay type in all cases: in vivo, human
# [1] = Phase 1 open-label multidose pharmacokinetic study of IPE, EPA in plasma and RBCs by LC-MS/MS
# Description: A study to characterize the pharmacokinetics of ethyl eicosapentaenoate in plasma and red blood cells after multiple-dose administration of IPE at 2 g per day and 4 g per day was performed in healthy adult male and female humans.
# The study was a phase 1, open-label, randomized, multidose study in healthy, nonsmoking men and women aged >18 and ≦55 years with a body mass index (BMI)>18 and ≦30 kg/m^2. Exclusion criteria included use within 6 weeks prior to randomization through study end of any lipid-altering medications or supplements, including statins, niacin at levels of greater than 200 mg/day, fibrates, ezetimibe, bile acid sequestrants, omega-3 fatty acid medications, and supplements or foods enriched with omega-3 fatty acids (no more than 2 servings of fish per week were permitted).
# Following a 14-day screening period, subjects entered a 28-day treatment period and were randomized to one of four IPE dose regimen treatment groups as shown in FIG. 1. Group 1 received IPE 2 g daily (1000-mg capsules; twice-daily [BID] regimen); Group 2 received IPE 4 g daily (1000-mg capsules; BID regimen); Group 3 received IPE 2 g daily (1000-mg capsules; once-daily [QD] regimen); and Group 4 received IPE 2 g daily (500-mg capsules; BID regimen). Treatment was administered orally, with or following a meal in the morning and evening for BID regimens, or in the morning only for the QD regimen. Subjects then entered an 18-day post-treatment pharmacokinetic sampling period.
# The safety population was defined as all randomized subjects who received at least one dose of study drug. […]
# Fasting EPA concentrations were measured with a validated liquid chromatography with tandem mass spectrometry (LC-MS/MS) method in plasma and RBCs prior to the morning dose (days 1, 14, 26, 28) and at serial time points (1, 3, 5, 6, 8, 10, 12, 24, 48, 72, 120, 192, 312, and 432 hours) after the morning dose on day 28. […] In RBCs, EPA was measured in the cell membrane, where EPA is mainly incorporated in phospholipids.
# For total EPA in plasma and RBCs, lipids were isolated by acid/methanol/chloroform extraction followed by centrifugation and purified by isohexane and solid-phase extraction after confirmed complete lipid hydrolysis and transmethylation (acid/methanol, 50° C. overnight). […] Quantitation utilized linolenic acid as an internal standard and EPA as the standard for the calibration curve; for total plasma EPA, RBC EPA, and unesterified EPA, the lower limits of quantitation were 10 μg/mL, 5 μg/mL, and 50 ng/mL, respectively. EPA concentrations were measured at Charles River Laboratories Ltd (Elphinstone Research Center, Tranent, Edinburgh, Scotland, UK). […]
# [2] = system: inflammation-associated end points (ICAM-1, Ox-LDL, Lp-PLA2, IL-6, hsCRP); assay: ANCHOR study, inflammation-associated end points (ITT); details: for ICAM-1 median placebo-adjusted % change from baseline / IL-6 median placebo-adjusted % change from baseline / Lp-PLA2 median placebo-adjusted % change from baseline / Ox-LDL median placebo-adjusted % change from baseline / hsCRP median placebo-adjusted % change from baseline: week 12; for ICAM-1 change from baseline / ICAM-1 end-of-treatment value / IL-6 change from baseline / IL-6 end-of-treatment value / Lp-PLA2 change from baseline / Lp-PLA2 end-of-treatment value / Ox-LDL change from baseline / Ox-LDL end-of-treatment value / hsCRP change from baseline / hsCRP end-of-treatment value: week 12, on statin, median
# Description: A multi-center, placebo-controlled, randomized, double-blind, 12-week study was performed to evaluate the efficacy and safety of >96% E-EPA in patients with fasting triglyceride levels ≧200 mg/dl and <500 mg/dl despite statin therapy (the mean of two qualifying entry values needed to be ≧185 mg/dl and at least one of the values needs to be ≧200 mg/dl). The primary objective of the study was to determine the efficacy of >96% E-EPA 2 g daily and 4 g daily, compared to placebo, in lowering fasting TG levels in patients with high risk for cardiovascular disease and with fasting TG levels ≧200 mg/dL and <500 mg/dL, despite treatment to LDL-C goal on statin therapy.
# The population for this study was men and women >18 years of age with a body mass index ≦45 kg/m^2 with fasting TG levels greater than or equal to 200 mg/dl and less than 500 mg/dl and on a stable does of statin therapy (with or without ezetimibe). The statin must have been atorvostatin, rosuvastatin or simvastatin. The dose of statin must have been stable for ≧4 weeks prior to the LDL-C/TG baseline qualifying measurement for randomization. The statin dose was optimal such that the patients are at their LDL-C goal at the LDL-C/TG baseline qualifying measurements. The same statin at the same dose was continued until the study ended.
# Approximately 648 patients were randomized at approximately 80 centers in the U.S. The study was a 18- to 20-week, Phase 3, multi-center study consisting of 2 study periods: (1) A 6- to 8-week screening period that included a diet and lifestyle stabilization, a non-statin lipid-altering treatment washout, and an LDL-C and TG qualifying period and (2) A 12-week, double-blind, randomized, placebo-controlled treatment period.
# After confirmation of qualifying fasting LDL-C and TG values, eligible patients entered a 12-week, randomized, double-blind treatment period. At Visit 4 (Week 0), patients were randomly assigned to 1 of the following treatment groups: • >96% E-EPA 2 g daily, • >96% E-EPA 4 g daily, or • Placebo.
# >96% E-EPA was provided in 1 g liquid-filled, oblong, gelatin capsules. The matching placebo capsule was filled with light liquid paraffin and contains 0 g of >96% E-EPA. >96% E-EPA capsules were to be taken with food (i.e. with or at the end of a meal).
# The primary efficacy variable for the double-blind treatment period was percent change in TG from baseline to Week 12 endpoint. The secondary efficacy variables for the double-blind treatment period included the following: • Percent changes in total cholesterol (TC), high-density lipoprotein cholesterol (HDL-C), LDL-C, calculated non-HDL-C, and very low-density lipoprotein cholesterol (VLDL-C) from baseline to Week 12 endpoint; • Percent change in very low-density lipoprotein TG from baseline to Week 12; • Percent changes in apolipoprotein A-I (apo A-I), apolipoprotein B (apo B), and apo A-I/apo B ratio from baseline to Week 12; • Percent changes in lipoprotein(a) from baseline to Week 12; • Percent changes in LDL particle number and size, measured by nuclear magnetic resonance, from baseline to Week 12; • Percent change in remnant-like particle cholesterol from baseline to Week 12; • Percent change in oxidized LDL from baseline to Week 12; • Changes in FPG and HbA1c from baseline to Week 12; • Change in insulin resistance, as assessed by the homeostasis model index insulin resistance, from baseline to Week 12; • Percent change in lipoprotein associated phospholipase A2 (Lp-PLA2) from baseline to Week 12; • Change in intracellular adhesion molecule-1 from baseline to Week 12; • Change in interleukin-2 from baseline to Week 12; • Change in plasminogen activator inhibitor-1 from baseline to Week 12. […]
# [3] = Safety and tolerability in the phase 1 IPE pharmacokinetic study
# Description: The safety population was defined as all randomized subjects who received at least one dose of study drug. The per-protocol population was defined as all safety population subjects who completed the 28-day treatment period without any major protocol deviations, and who provided blood samples for EPA analyses.
# Safety assessments consisted of adverse event (AE) monitoring, clinical laboratory measurements (chemistry, hematology, and urinalysis) 12-lead electrocardiographic measurements, vital signs (systolic and diastolic blood pressure, heart rate, respiratory rate, and oral body temperature) and physical examination findings.
# [4] = system: inflammation-associated end points (ICAM-1, Ox-LDL, Lp-PLA2, IL-6, hsCRP); assay: MARINE study, inflammation-associated end points (ITT); details: for ICAM-1 change from baseline / ICAM-1 end-of-treatment value / IL-6 change from baseline / IL-6 end-of-treatment value / Lp-PLA2 change from baseline / Lp-PLA2 end-of-treatment value / Ox-LDL change from baseline / Ox-LDL end-of-treatment value / hsCRP change from baseline / hsCRP end-of-treatment value: median
# Description: A summary of baseline values, end-of-treatment values, and median placebo-adjusted percent change from baseline to study end of inflammation-associated end points in each of the three ITT sub-populations is shown in Table 5. […]
compound,measurement,setting,value
"CC/C=C\C/C=C\C/C=C\C/C=C\C/C=C\CCCC(=O)OCC [IPE, ethyl eicosapentaenoate]",dose linearity of exposure (dose-normalized AUC and maximum concentration),"[1]; IPE 2 g/day vs 4 g/day (Group 1 vs Group 2), total plasma, total RBCs, unesterified EPA",Dose linearity was observed; also recorded: dose-proportional
same,effect of gender on exposure parameters,[1]; in vivo,no consistent gender effect was observed
same,comparison of exposure between QD and BID regimens,"[1]; same daily dose 2 g, Group 1 vs Group 3",similarity between QD and BID regimens
same,comparison of exposure between 500-mg and 1000-mg formulations,"[1]; same daily dose 2 g, Group 1 vs Group 4",comparable exposures at comparable doses
same,ICAM-1 median placebo-adjusted % change from baseline,[2]; AMR101 2 g/day vs placebo,−2.2%
same,IL-6 median placebo-adjusted % change from baseline,[2]; AMR101 2 g/day vs placebo,7.0%
same,Lp-PLA2 median placebo-adjusted % change from baseline,[2]; AMR101 2 g/day vs placebo,−8.0%
same,Ox-LDL median placebo-adjusted % change from baseline,[2]; AMR101 2 g/day vs placebo,−5.8%
same,hsCRP median placebo-adjusted % change from baseline,[2]; AMR101 2 g/day vs placebo,−6.8%
same,ICAM-1 change from baseline,[2]; AMR101 2 g/day,0.5%
same,ICAM-1 end-of-treatment value,[2]; AMR101 2 g/day,268.5 ng/mL
same,IL-6 change from baseline,[2]; AMR101 2 g/day,6.9%
same,IL-6 end-of-treatment value,[2]; AMR101 2 g/day,2.7 pg/mL
same,Lp-PLA2 change from baseline,[2]; AMR101 2 g/day,−1.8%
same,Lp-PLA2 end-of-treatment value,[2]; AMR101 2 g/day,183.5 ng/mL
same,Ox-LDL change from baseline,[2]; AMR101 2 g/day,2.6%
same,Ox-LDL end-of-treatment value,[2]; AMR101 2 g/day,55.8 U/L
same,hsCRP change from baseline,[2]; AMR101 2 g/day,10.3%
same,hsCRP end-of-treatment value,[2]; AMR101 2 g/day,2.5 mg/L
same,ICAM-1 median placebo-adjusted % change from baseline,[2]; AMR101 4 g/day vs placebo,−2.4%
same,IL-6 median placebo-adjusted % change from baseline,[2]; AMR101 4 g/day vs placebo,−1.0%
same,Lp-PLA2 median placebo-adjusted % change from baseline,[2]; AMR101 4 g/day vs placebo,−19.0%
same,Ox-LDL median placebo-adjusted % change from baseline,[2]; AMR101 4 g/day vs placebo,−13.3%
same,hsCRP median placebo-adjusted % change from baseline,[2]; AMR101 4 g/day vs placebo,−22.0%
same,ICAM-1 change from baseline,[2]; AMR101 4 g/day,0.8%
same,ICAM-1 end-of-treatment value,[2]; AMR101 4 g/day,270.0 ng/mL
same,IL-6 change from baseline,[2]; AMR101 4 g/day,3.1%
same,IL-6 end-of-treatment value,[2]; AMR101 4 g/day,2.6 pg/mL
same,Lp-PLA2 change from baseline,[2]; AMR101 4 g/day,−12.8%
same,Lp-PLA2 end-of-treatment value,[2]; AMR101 4 g/day,160.0 ng/mL
same,Ox-LDL change from baseline,[2]; AMR101 4 g/day,−4.8%
same,Ox-LDL end-of-treatment value,[2]; AMR101 4 g/day,51.4 U/L
same,hsCRP change from baseline,[2]; AMR101 4 g/day,−2.4%
same,hsCRP end-of-treatment value,[2]; AMR101 4 g/day,2.0 mg/L
same,subjects reporting at least one adverse event,"[3]; Group 1, IPE 2 g daily, 1000-mg capsules BID",25.0%
same,subjects reporting at least one adverse event,"[3]; Group 2, IPE 4 g daily, 1000-mg capsules BID",33.3%
same,subjects reporting at least one adverse event,"[3]; Group 3, IPE 2 g daily, 1000-mg capsules QD",25.0%
same,subjects reporting at least one adverse event,"[3]; Group 4, IPE 2 g daily, 500-mg capsules BID",33.3%
same,"changes in laboratory, electrocardiographic, or physical examination findings",[3]; all groups,no clinically meaningful changes
same,intensity of adverse events,[3]; all groups,mild or moderate in intensity
same,subjects reporting at least one adverse event,"[3]; all groups, safety population n = 48",29.2%
same,ICAM-1 median placebo-adjusted % change from baseline,[4]; AMR101 2 g/day vs placebo,−2.3%
same,IL-6 median placebo-adjusted % change from baseline,[4]; AMR101 2 g/day vs placebo,4.7%
same,Lp-PLA2 median placebo-adjusted % change from baseline,[4]; AMR101 2 g/day vs placebo,−5.1%
same,Ox-LDL median placebo-adjusted % change from baseline,[4]; AMR101 2 g/day vs placebo,−3.0%
same,hsCRP median placebo-adjusted % change from baseline,[4]; AMR101 2 g/day vs placebo,−10.1%
same,ICAM-1 change from baseline,[4]; AMR101 2 g/day,−0.4%
same,ICAM-1 end-of-treatment value,[4]; AMR101 2 g/day,257.5 ng/mL
same,IL-6 change from baseline,[4]; AMR101 2 g/day,3.4%
same,IL-6 end-of-treatment value,[4]; AMR101 2 g/day,3.0 pg/mL
same,Lp-PLA2 change from baseline,[4]; AMR101 2 g/day,−5.1%
same,Lp-PLA2 end-of-treatment value,[4]; AMR101 2 g/day,220.5 ng/mL
same,Ox-LDL change from baseline,[4]; AMR101 2 g/day,0.4%
same,Ox-LDL end-of-treatment value,[4]; AMR101 2 g/day,75.2 U/L
same,hsCRP change from baseline,[4]; AMR101 2 g/day,25.1%
same,hsCRP end-of-treatment value,[4]; AMR101 2 g/day,2.4 mg/L
same,ICAM-1 median placebo-adjusted % change from baseline,[4]; AMR101 4 g/day vs placebo,−2.5%
same,IL-6 median placebo-adjusted % change from baseline,[4]; AMR101 4 g/day vs placebo,11.0%
same,Lp-PLA2 median placebo-adjusted % change from baseline,[4]; AMR101 4 g/day vs placebo,−13.6%
same,Ox-LDL median placebo-adjusted % change from baseline,[4]; AMR101 4 g/day vs placebo,−6.4%
same,hsCRP median placebo-adjusted % change from baseline,[4]; AMR101 4 g/day vs placebo,−36.0%
same,ICAM-1 change from baseline,[4]; AMR101 4 g/day,−0.9%
same,ICAM-1 end-of-treatment value,[4]; AMR101 4 g/day,253.0 ng/mL
same,IL-6 change from baseline,[4]; AMR101 4 g/day,0.3%
same,IL-6 end-of-treatment value,[4]; AMR101 4 g/day,2.4 pg/mL
same,Lp-PLA2 change from baseline,[4]; AMR101 4 g/day,−17.1%
same,Lp-PLA2 end-of-treatment value,[4]; AMR101 4 g/day,201.0 ng/mL
same,Ox-LDL change from baseline,[4]; AMR101 4 g/day,−3.0%
same,Ox-LDL end-of-treatment value,[4]; AMR101 4 g/day,74.8 U/L
same,hsCRP change from baseline,[4]; AMR101 4 g/day,−2.5%
same,hsCRP end-of-treatment value,[4]; AMR101 4 g/day,2.2 mg/L
